{
  "source": "patent US20260207717A1",
  "about": "“METHODS FOR TREATING INFANTILE-ONSET POMPE DISEASE IN PEDIATRIC PATIENTS” (Amicus Therapeutics, Inc., priority 2022, published 2026)",
  "key": {"[1]": {"test_system": "single fibers isolated from the white gastrocnemius of Gaa KO mice", "test": "Single fiber analysis (LAMP1/LC3 co-immunofluorescence)", "format": "in vivo", "description": "FIG. 17 depicts co-immunofluorescent staining of LAMP1 (green) (see for example, “B”) and LC3 (red) (see, for example, “A”) in single fibers isolated from the white gastrocnemius of Gaa KO mice treated with a vehicle, alglucosidase alfa, or ATB200. “C” depicts clearance of autophagic debris and absence of enlarged lysosome. A minimum of 30 fibers were examined from each animal.\nAs a result, a significant portion of muscle fibers analyzed (36-60%) from ATB200-treated mice appeared normal or near-normal."}, "pediatric IOPD patient": {"test_system": "pediatric IOPD patient", "details": "for LVEF / LVMI: 2 D"}, "CIMPR": {"molecular_target": "CIMPR (Homo sapiens, UniProt P11717)", "sequence (P11717 41-2491, species assumed)": "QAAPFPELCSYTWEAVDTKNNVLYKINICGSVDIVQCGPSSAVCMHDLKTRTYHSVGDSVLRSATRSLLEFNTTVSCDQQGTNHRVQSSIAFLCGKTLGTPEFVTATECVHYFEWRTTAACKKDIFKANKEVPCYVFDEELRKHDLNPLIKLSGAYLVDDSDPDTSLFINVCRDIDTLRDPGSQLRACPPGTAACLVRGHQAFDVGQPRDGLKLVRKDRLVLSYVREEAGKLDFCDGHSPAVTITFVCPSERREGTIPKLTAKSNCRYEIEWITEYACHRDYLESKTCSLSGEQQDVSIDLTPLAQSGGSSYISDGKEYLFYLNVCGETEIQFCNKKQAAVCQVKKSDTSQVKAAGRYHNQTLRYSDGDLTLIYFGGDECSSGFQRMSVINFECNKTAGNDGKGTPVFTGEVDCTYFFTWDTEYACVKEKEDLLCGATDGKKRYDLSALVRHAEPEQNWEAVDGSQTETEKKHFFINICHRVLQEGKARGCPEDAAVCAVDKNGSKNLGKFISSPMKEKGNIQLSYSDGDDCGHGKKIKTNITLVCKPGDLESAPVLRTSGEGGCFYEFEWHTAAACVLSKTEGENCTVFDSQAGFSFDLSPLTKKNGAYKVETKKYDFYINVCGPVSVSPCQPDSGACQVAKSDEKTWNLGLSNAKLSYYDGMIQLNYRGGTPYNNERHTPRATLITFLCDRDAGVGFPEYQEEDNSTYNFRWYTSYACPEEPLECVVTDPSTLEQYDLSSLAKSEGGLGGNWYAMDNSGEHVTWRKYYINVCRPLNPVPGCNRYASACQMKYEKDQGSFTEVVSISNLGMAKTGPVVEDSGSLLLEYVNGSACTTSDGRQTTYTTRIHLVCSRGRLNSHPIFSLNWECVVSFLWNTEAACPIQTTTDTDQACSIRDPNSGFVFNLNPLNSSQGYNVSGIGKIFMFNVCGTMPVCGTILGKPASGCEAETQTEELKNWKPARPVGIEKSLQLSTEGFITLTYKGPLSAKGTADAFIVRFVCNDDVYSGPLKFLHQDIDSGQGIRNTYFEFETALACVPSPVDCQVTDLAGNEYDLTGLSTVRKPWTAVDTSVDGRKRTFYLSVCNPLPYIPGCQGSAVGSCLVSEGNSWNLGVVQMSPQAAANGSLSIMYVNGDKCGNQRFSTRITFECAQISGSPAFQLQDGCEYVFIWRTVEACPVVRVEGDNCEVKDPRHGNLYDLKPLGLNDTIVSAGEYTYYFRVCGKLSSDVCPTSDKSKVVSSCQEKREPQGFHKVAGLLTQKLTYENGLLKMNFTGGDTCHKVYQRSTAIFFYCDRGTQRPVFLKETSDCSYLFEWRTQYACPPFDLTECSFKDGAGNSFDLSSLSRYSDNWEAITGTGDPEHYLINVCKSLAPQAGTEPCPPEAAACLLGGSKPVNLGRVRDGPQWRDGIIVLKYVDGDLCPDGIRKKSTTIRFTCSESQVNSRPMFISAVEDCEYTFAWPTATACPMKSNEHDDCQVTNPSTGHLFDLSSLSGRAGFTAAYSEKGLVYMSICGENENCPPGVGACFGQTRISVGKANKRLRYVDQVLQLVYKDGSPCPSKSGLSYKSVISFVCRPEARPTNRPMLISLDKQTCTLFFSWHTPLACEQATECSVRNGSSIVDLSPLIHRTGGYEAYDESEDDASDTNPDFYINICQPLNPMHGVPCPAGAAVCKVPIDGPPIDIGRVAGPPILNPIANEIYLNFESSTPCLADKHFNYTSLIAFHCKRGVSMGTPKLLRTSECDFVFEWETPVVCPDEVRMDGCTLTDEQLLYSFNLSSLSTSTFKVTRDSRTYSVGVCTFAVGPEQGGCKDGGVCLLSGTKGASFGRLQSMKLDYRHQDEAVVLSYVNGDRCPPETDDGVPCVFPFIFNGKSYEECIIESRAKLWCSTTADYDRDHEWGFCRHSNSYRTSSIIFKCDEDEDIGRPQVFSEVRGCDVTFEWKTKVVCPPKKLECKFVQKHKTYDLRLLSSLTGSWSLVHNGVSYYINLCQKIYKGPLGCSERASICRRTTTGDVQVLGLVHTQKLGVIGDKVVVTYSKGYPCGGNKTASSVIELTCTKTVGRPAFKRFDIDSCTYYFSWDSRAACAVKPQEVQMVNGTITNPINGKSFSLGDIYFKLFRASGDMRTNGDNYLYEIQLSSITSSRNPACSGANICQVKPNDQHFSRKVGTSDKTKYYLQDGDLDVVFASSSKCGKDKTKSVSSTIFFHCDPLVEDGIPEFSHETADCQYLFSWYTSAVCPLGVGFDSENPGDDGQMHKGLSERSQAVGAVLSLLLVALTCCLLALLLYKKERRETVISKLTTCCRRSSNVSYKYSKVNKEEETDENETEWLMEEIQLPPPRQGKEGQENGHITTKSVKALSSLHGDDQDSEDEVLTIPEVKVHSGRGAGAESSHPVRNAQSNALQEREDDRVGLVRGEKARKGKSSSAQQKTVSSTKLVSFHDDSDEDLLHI", "test": "CIMPR affinity chromatography (bound vs unbound rhGAA by GAA activity)", "format": "binding", "description": "Multiple batches of the rhGAA according to the disclosure were produced in shake flasks and in perfusion bioreactors using CHO cell line GA-ATB200, the product of which is referred to as “ATB200.” Weak anion exchange (“WAX”) liquid chromatography was used to fractionate ATB200 rhGAA according to terminal phosphate and sialic acid. Elution profiles were generated by eluting the ERT with increasing amount of salt. The profiles were monitored by UV (A280 nm).\nTo evaluate the ability of the conventional rhGAAs in MYOZYME® and LUMIZYME® to interact with the CIMPR, the two conventional rhGAA preparations were injected onto a CIMPR affinity column (which binds rhGAA having M6P groups) and the flow through collected. The bound material was eluted with a free M6 gradient. Fractions were collected in 96-well plate and GAA activity assayed by 4MU-α-glucosidase substrate. The relative amounts of unbound (flow through) and bound (M6P eluted) rhGAA were determined based on GAA activity and reported as the fraction of total enzyme. […] Indeed, only 27% of the rhGAA in MYOZYME® and 22% of the rhGAA in LUMIZYME® contained M6P that can be productive to target it to the CIMPR on muscle cells."}, "Juvenile toxicology": {"test": "Juvenile toxicology", "format": "in vivo", "description": "The cipaglucosidase alfa dose of 30 mg/kg being evaluated in this protocol was determined from population PK modeling and simulation analyses that included pooled data from 96 adults and 11 pediatric subjects dosed at 20, 25, and 30 mg/kg, including 3 pediatric IOPD patients from the Expanded Access Program (EAP) (ages 1 to 3 years) at the 30 mg/kg dose level. The 30 mg/kg dose level in combination with additional effect from miglustat provided exposures that are well within the safety margin and multiples of exposure established by the juvenile toxicology no-observed-adverse effect-level (NOAEL) of 150 mg/kg."}, "clinical": {"test": "clinical", "details": "human, in vivo", "description": "At 10Y7M of age, the blood of the patient was collected to gather pharmacokinetic (PK) data for their treatment that included weekly administration of 20 mg/kg ATB200 and 130 mg AT2221.\nBlood sampling of the patient was conducted to gather pharmacokinetic (PK) data for their treatment that included administration of 25 mg/kg ATB200 and 195 mg AT2221 biweekly.\nAt 12Y5M of age, the patient has been receiving ATB200 (20 mg/kg) and AT2221 (195 mg) biweekly for 1 year. […] At this time, the PK levels of both ATB200 and AT2221 were taken from the patient."}},
  "note": "Entries after “also recorded” stand apart in the source; their conditions may differ. Like-named read-outs stand apart in the source and are kept apart here. Marks after values point to notes of the source that are not given here.",
  "data": [
    {"substance": "ATB200: recombinant human acid α-glucosidase with a high content of N-glycans bearing mono-M6P and bis-M6P, produced from a GA-ATB200 cell line", "values": [
      {"measurement": "Fibers with Autophagy Buildup", "setting": "[1]", "value": "40-64%*"},
      {"measurement": "Fibers with Normal or Near-normal Appearance", "setting": "[1]", "value": "36-60%"},
      {"measurement": "Lysosome Enlargement", "setting": "[1]", "value": "dramatically decreased lysosome size; also recorded: Dramatic size"},
      {"measurement": "CK", "setting": "pediatric IOPD patient; AT2221 115 mg QW", "value": 1187, "unit": "U/L"},
      {"measurement": "Pro-BNP", "setting": "pediatric IOPD patient; AT2221 115 mg QW", "value": 44.29, "unit": "pg/mL"},
      {"measurement": "CK", "setting": "pediatric IOPD patient; ATB200 20 mg/kg QW", "value": 1834, "unit": "U/L"},
      {"measurement": "Glc4", "setting": "pediatric IOPD patient; ATB200 20 mg/kg QW", "value": 41.53, "unit": "mmol/mol CRE"},
      {"measurement": "Pro-BNP", "setting": "pediatric IOPD patient; ATB200 20 mg/kg QW", "value": 36.3, "unit": "pg/mL"},
      {"measurement": "Pro-BNP", "setting": "pediatric IOPD patient; ATB200 20 mg/kg q2w", "value": 151.5, "unit": "pg/mL"},
      {"measurement": "Glc4", "setting": "pediatric IOPD patient; ATB200 20 mg/kg, AT2221 130 mg", "value": 29.08, "unit": "mmol/mol CRE"},
      {"measurement": "Pro-BNP", "setting": "pediatric IOPD patient; ATB200 20 mg/kg, AT2221 130 mg", "value": 45.52, "unit": "pg/mL"},
      {"measurement": "Pro-BNP", "setting": "pediatric IOPD patient; ATB200 25 mg/kg QW", "value": 33.24, "unit": "pg/mL"},
      {"measurement": "LVEF", "setting": "pediatric IOPD patient; ATB200 25 mg/kg QW", "value": 60.3, "unit": "%"},
      {"measurement": "LVMI", "setting": "pediatric IOPD patient; ATB200 25 mg/kg QW", "value": 43.6, "unit": "g/m^2"},
      {"measurement": "CK", "setting": "pediatric IOPD patient; ATB200 30 mg/kg, AT2221 130 mg", "value": 1146, "unit": "U/L"},
      {"measurement": "Pro-BNP", "setting": "pediatric IOPD patient; ATB200 30 mg/kg, AT2221 130 mg", "value": 29.25, "unit": "pg/mL"},
      {"measurement": "LVEF", "setting": "pediatric IOPD patient; ATB200 30 mg/kg, AT2221 130 mg", "value": 57, "unit": "%"},
      {"measurement": "LVMI", "setting": "pediatric IOPD patient; ATB200 30 mg/kg, AT2221 130 mg", "value": 39.1, "unit": "g/m^2"},
      {"measurement": "CK", "setting": "pediatric IOPD patient; Change AT2221 to 115 mg QW", "value": 1277, "unit": "U/L"},
      {"measurement": "CK", "setting": "pediatric IOPD patient; Change ATB200 to 20 mg/kg QW", "value": 1674, "unit": "U/L"},
      {"measurement": "Glc4", "setting": "pediatric IOPD patient; Change ATB200 to 20 mg/kg QW", "value": 50.74, "unit": "mmol/mol CRE"},
      {"measurement": "LVEF", "setting": "pediatric IOPD patient; Change ATB200 to 20 mg/kg QW", "value": 61.1, "unit": "%"},
      {"measurement": "LVMI", "setting": "pediatric IOPD patient; Change ATB200 to 20 mg/kg QW", "value": 38, "unit": "g/m^2"},
      {"measurement": "CK", "setting": "pediatric IOPD patient; Change ATB200 to 25 mg/kg QW", "value": 1524, "unit": "U/L"},
      {"measurement": "Glc4", "setting": "pediatric IOPD patient; Change ATB200 to 25 mg/kg QW", "value": 34.85, "unit": "mmol/mol CRE"},
      {"measurement": "Pro-BNP", "setting": "pediatric IOPD patient; Change ATB200 to 25 mg/kg QW", "value": 231.9, "unit": "pg/mL"},
      {"measurement": "CK", "setting": "pediatric IOPD patient; Change ATB200 to 30 mg/kg QW", "value": 1661, "unit": "U/L"},
      {"measurement": "Glc4", "setting": "pediatric IOPD patient; Change ATB200 to 30 mg/kg QW", "value": 36.19, "unit": "mmol/mol CRE"},
      {"measurement": "Pro-BNP", "setting": "pediatric IOPD patient; Change ATB200 to 30 mg/kg QW", "value": 180.6, "unit": "pg/mL"},
      {"measurement": "CK", "setting": "pediatric IOPD patient; change to ATB200 20 mg/kg q2w", "value": "1393-1444 U/L"},
      {"measurement": "Glc4", "setting": "pediatric IOPD patient; change to ATB200 20 mg/kg q2w", "value": 32.58, "unit": "mmol/mol CRE"},
      {"measurement": "LVEF", "setting": "pediatric IOPD patient; change to ATB200 20 mg/kg q2w", "value": 41, "unit": "%"},
      {"measurement": "LVMI", "setting": "pediatric IOPD patient; change to ATB200 20 mg/kg q2w", "value": 42, "unit": "g/m^2"},
      {"measurement": "skin rash, dyspnea, cough, pale-like complexion", "setting": "pediatric IOPD patient; human, in vivo, 30 mg/kg", "value": "had not developed any skin rash, dyspnea, cough, or pale-like complexion"},
      {"measurement": "rhGAA that binds to the CIMPR (contains M6P)", "setting": "CIMPR; fraction of total enzyme by GAA activity", "value": "more than 70%"},
      {"measurement": "CIMPR receptor binding", "setting": "CIMPR; purified ATB200 rhGAA from different production batches (FIG. 5)", "value": "≥ 70", "unit": "%"},
      {"measurement": "no-observed-adverse effect-level (NOAEL)", "setting": "Juvenile toxicology", "value": 150, "unit": "mg/kg"},
      {"measurement": "AUC relative to adult percentiles", "setting": "clinical", "value": "within the adult 10th-90th percentile"},
      {"measurement": "Cmax relative to adult percentiles", "setting": "clinical", "value": "within the adult 10th-90th percentile"}
    ]}
  ]
}
